{
  "source": "patent US20100120679A1",
  "about": "“Targeting NBS1-ATM Interaction To Sensitize Cancer Cells To Radiotherapy And Chemotherapy” (SOUTHERN RESEARCH INSTITUTE, priority 2006, published 2010)",
  "key": {"[1]": {"system": "NBS1 phosphorylation on serine 343 in HeLa cells", "test": "IR-induced NBS1 pSer343 focus formation, HeLa", "assay_type": "cell-based, human", "excerpt": "(§1) Error bars represent +/−1 SD, graphed are the mean of three independent experiments.\nTo further support the idea that wtNIP can inhibit ATM-mediated DNA damage pathways, IR-induced NBS1 focus formation, an event considered to be an ATM-dependent process at the sites of DSBs (Lim et al., 2000) was investigated. NBS1 foci are a result of ATM-mediated NBS1 phosphorylation on serine 343. […] The average number of foci in mock-irradiated HeLa cells was 6, 8, and 6 for R9, wtNIP, and scNIP, respectively."}, "[2]": {"system": "HeLa cells", "test": "Peptide internalization by immunofluorescence microscopy (fluorescein-conjugated streptavidin)", "assay_type": "cell-based, human", "conditions": "10 μM for 1 h", "method": "First, the internalization of the peptides was evaluated. Cells treated with the peptide were probed with a fluorescein-conjugated streptavidin antibody to determine the presence of the biotinylated peptides."}, "[3]": {"system": "γ-H2AX foci in DU-145 cells", "test": "IR-induced γ-H2AX focus formation, DU-145", "assay_type": "cell-based, human", "conditions": "10 μM peptide, 6Gy", "excerpt": "as §1\n(§2) wtNIP Inhibits IR-Induced γ-H2AX and NBS1 pSer343 Focus Formation: One of the earliest responses to IR-induced DNA damage is the formation of γ-H2AX foci, which requires functional ATM (Burma et al., 2001; Furuta et al., 2003). […] Immunofluorescence microscopy was used to detect the presence of γ-H2AX foci in mock-irradiated or irradiated cells in the presence of R9, wtNIP or scNIP. […] Therefore, IR-induced γ-H2AX focus formation can be inhibited by wt-NIP."}, "[4]": {"molecular_target": "T1, NBS1-ATM interaction (Homo sapiens, UniProt Q13315)", "T1 construct": "endogenous in cells; host or cells: HeLa", "test": "Co-immunoprecipitation of ATM with NBS1 in peptide-treated cells", "assay_type": "cell-based", "conditions": "HeLa cells, four hours after peptide treatment, unirradiated", "method": "HeLa cells treated with the NIP peptides were irradiated (0 or 6Gy). Immunoprecipitation was performed with a rabbit NBS1 antibody, and Western blotting was performed with monoclonal antibodies against ATM, NBS1 or MRE11.\nImmunoprecipitation and Western blotting: For co-immunoprecipitation of ATM, NBS1 and MRE11, cells were lysed 1 hour in ice-cold lysis buffer, which consisted of 10 mM Tris-HCl (pH 7.5), 100 mM NaCl, 5 mM EDTA, 0.5% NP-40, 5 mM Na3VO4, 1 mM NaF, and 1 mM PMSF. After centrifugation, supernatants were incubated with indicated antibodies. After extensive washing with the lysis buffer, immunoprecipitates were analyzed by immunoblot using specific antibodies. For western blotting analysis, samples (cell lysates or immunoprecipitates) were separated on 4-12% SDS-poly-acrylamide gels, transferred to nitrocellulose membranes, and probed with various antibodies.\nwtNIP Abrogated the NBS1-ATM Interaction: To investigate whether R9-conjugated NIP peptides could inhibit NBS1-ATM interactions, coimmunoprecipitation experiments were performed in cells treated with the NIP peptides. Four hours after peptide treatment, HeLa cells were harvested and subjected to immunoprecipitation using an anti-NBS1 antibody. The immunoprecipitates were then blotted with anti-ATM, NBS1, and MRE11 antibodies."}, "[5]": {"system": "γ-H2AX foci in HeLa cells", "test": "IR-induced γ-H2AX focus formation, HeLa", "assay_type": "cell-based, human", "conditions": "10 μM peptide, 30 minutes after 6Gy IR", "excerpt": "as §1, §2"}, "[6]": {"system": "HeLa cells", "test": "Colony formation assay (radiosensitivity), HeLa", "method": "Shown in A (HeLa), C (MO59J) and D (GM9607) are the susvival curves after indicated doses of radiation. Error bars represent +/−1 SEM, graphed are the mean of three independent experiments.\nColony formation assays: To determine the radiosensitivity, the colony forming assay was incorporated. Cells were harvested with 0.125% trypsin-0.05% EDTA, pelleted and re-suspended in 1 ml fresh media with a 22 g needle to disperse clumps prior to hemocytometer counting in trypan blue. Cells were then plated at limiting dilutions in […] and allowed to adhere overnight. Cultures were treated with PBS, R9, wtNIP, or scNIP for 1 hour, and irradiated (0-6Gy). Fresh peptides were added every four hours until 24 hours after IR, when the medium was replaced with peptide-free medium. Cultures were incubated for 10-12 days, harvested and stained with 0.5% crystal violet in methanol. Colony number was determined with a dissecting microscope. A population of >50 cells was counted as one colony, and the number of colonies was expressed as a percentage of the value for untreated mock irradiated control cells. The surviving curves were plotted by linear regression analyses and the D0 value represents the radiation dose that leads to 37% of survival. To determine the radiosensitizing potential of the peptides in comparison to other small molecule inhibitors, the sensitizing enhancement ratio (SER) was calculated based on the dose of radiation required to reduce survival to 37% in the presence of scNIP or wtNIP. The following formula was used: […]\nStatistics: To establish statistical significance, Student's t-test was incorporated. The data were first fit to each experimental group over a dose range of 0-6Gy. Significant differences were established at p<0.05.\nFIG. 6A depicts the survival curves for HeLa cells treated with R9, wtNIP, or scNIP over a dose range of 0 to 6 Gy."}, "[7]": {"system": "HeLa cells", "test": "Length of time the peptides remain in cells (degradation, immunofluorescence)", "method": "HeLa cells were treated with 10 μM R9, wtNIP, or scNIP for one hour and harvested at indicated time points before they were analyzed by immunofluorescence microscopy staining with an […].\nImmunofluorescence microscopy: Exponentially growing cultures of cells were plated on sterile, […] coverslips, and incubated for 24 hours at 37° C. in 5% CO2 humidified air before they are treated with the NIP peptides at room temperature. Coverslips were washed with PBS and fixed with 4% paraformaldehyde-0.25% Triton X-100 for 15 minutes at room temperature, blocked for 30 minutes at room temperature, and incubated with FITC-conjugated streptavidin or anti-γH2AX and phospho-NBS1 antibodies (Rockland Immunochemicals, Gilbertsville, Pa.) for 1 hour at room temperature. Coverslips were then mounted with Vectashield Elite (Vector Labs, Burlingame, Calif.) and observed with a Leica fluorescence microscope. Images were captured at 40× magnification using a Q Imaging Retiga Exi digital camera and analyzed with Image Pro-Plus 5.1 software.\nBecause the peptides would be used in radiation studies, the length of time the peptides remain in cells was determined to ensure that the peptides would be present throughout the DNA repair process after IR."}, "[8]": {"system": "Hela cells", "conditions": "cited from earlier work"}, "[9]": {"molecular_target": "ATM (human, UniProt Q13315 2-3056)", "sequence (Q13315 other isoform, or with tags, fused parts or gaps limits assumed)": "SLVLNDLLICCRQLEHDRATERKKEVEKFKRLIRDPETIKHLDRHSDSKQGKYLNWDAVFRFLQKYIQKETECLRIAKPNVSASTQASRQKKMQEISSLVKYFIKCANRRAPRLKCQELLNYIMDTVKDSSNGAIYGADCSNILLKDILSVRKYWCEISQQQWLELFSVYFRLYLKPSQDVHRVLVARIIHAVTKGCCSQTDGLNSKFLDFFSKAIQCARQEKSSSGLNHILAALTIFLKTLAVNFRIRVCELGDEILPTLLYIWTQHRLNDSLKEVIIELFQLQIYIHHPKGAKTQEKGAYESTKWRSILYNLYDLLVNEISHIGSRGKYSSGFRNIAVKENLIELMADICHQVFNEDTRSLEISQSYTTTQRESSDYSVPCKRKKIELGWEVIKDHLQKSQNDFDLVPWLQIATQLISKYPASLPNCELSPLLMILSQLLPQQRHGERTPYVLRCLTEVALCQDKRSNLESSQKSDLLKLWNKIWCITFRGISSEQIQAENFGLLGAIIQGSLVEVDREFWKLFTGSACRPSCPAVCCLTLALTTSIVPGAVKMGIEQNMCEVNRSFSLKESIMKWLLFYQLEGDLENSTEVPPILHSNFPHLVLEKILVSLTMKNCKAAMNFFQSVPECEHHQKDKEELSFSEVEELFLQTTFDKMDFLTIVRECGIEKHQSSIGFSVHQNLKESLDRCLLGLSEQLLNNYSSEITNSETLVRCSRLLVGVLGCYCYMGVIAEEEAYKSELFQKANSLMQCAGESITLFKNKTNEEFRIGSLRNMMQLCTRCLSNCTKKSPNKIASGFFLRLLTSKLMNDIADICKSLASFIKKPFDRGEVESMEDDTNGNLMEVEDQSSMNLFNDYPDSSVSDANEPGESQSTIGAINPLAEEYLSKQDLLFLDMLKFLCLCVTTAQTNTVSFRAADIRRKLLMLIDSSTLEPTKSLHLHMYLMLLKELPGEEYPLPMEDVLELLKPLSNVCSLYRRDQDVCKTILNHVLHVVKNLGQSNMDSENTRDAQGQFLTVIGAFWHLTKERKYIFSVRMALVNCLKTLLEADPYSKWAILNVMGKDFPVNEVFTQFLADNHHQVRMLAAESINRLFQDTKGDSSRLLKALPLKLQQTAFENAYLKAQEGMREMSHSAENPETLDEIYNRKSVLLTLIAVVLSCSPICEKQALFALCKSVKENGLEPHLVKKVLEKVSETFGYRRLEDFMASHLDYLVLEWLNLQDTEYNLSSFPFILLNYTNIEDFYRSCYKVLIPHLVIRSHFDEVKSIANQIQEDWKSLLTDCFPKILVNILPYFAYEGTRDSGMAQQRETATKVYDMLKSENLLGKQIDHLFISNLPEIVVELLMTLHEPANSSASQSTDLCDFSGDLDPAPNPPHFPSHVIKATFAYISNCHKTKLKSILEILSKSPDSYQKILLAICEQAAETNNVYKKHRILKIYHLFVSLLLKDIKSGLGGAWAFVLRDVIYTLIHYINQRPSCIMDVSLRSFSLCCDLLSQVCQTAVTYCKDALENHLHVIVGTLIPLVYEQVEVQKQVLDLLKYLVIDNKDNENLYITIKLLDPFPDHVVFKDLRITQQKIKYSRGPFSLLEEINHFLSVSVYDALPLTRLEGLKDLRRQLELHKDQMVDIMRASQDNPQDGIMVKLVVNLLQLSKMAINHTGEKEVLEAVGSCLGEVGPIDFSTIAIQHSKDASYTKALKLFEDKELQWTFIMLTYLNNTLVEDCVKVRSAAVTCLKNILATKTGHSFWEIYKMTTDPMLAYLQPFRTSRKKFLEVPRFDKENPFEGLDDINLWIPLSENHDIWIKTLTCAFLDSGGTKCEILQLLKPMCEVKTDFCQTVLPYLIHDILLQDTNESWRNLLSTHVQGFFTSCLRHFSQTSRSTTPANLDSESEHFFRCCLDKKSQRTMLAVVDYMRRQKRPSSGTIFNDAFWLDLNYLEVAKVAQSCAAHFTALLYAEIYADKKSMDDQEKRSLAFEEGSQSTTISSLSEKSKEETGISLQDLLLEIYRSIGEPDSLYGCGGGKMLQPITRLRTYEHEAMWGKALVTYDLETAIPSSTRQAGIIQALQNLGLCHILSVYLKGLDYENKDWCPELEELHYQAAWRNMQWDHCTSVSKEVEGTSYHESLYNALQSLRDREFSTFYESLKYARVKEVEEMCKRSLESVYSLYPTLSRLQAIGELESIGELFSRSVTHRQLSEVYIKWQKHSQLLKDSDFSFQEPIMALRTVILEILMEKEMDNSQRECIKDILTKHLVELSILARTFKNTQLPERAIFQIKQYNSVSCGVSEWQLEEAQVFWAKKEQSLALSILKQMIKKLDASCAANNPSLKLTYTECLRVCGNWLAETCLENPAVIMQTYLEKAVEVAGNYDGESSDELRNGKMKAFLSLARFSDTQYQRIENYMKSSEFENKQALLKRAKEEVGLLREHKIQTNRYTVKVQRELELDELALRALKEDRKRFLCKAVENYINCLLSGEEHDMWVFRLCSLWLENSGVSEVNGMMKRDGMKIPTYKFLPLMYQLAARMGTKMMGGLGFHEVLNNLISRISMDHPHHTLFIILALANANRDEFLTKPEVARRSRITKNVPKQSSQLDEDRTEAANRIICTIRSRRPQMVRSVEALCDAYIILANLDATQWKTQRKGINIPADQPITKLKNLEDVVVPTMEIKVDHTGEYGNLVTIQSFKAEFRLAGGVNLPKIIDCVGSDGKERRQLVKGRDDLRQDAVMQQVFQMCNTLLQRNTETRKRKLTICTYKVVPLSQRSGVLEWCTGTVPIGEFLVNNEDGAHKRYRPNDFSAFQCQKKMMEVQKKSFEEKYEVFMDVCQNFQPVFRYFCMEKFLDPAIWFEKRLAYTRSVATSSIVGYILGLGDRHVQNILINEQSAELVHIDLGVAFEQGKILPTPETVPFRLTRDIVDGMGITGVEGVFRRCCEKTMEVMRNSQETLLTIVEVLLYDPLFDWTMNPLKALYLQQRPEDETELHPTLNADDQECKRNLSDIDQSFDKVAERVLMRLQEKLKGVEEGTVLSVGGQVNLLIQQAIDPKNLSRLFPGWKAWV", "test": "cell-based or functional assay"}},
  "note": "Ends that are not written are not given here. Peptide text beside a SMILES is read from it. * marks the point of attachment. Biotin = O=C1N[C@H]2[C@H](CS[C@H]2CCCCC(=O)*)N1",
  "data": [
    {"molecule": "CC(C)C[C@H](NC(=O)[C@H](CCC(=O)O)NC(=O)[C@H](CCC(=O)O)NC(=O)[C@H](CC(C)C)NC(=O)[C@H](CC(=O)O)NC(=O)[C@H](C)NC(=O)[C@H](CC(=O)O)NC(=O)[C@H](CO)NC(=O)[C@H](CCCNC(=N)N)NC(=O)[C@H](CCCNC(=N)N)NC(=O)[C@H](CCCNC(=N)N)NC(=O)[C@H](CCCNC(=N)N)NC(=O)[C@H](CCCNC(=N)N)NC(=O)[C@H](CCCNC(=N)N)NC(=O)[C@H](CCCNC(=N)N)NC(=O)[C@H](CCCNC(=N)N)NC(=O)[C@H](CCCNC(=N)N)NC(=O)CCCC[C@@H]1SC[C@@H]2NC(=O)N[C@@H]21)C(=O)N[C@@H](CCCCN)C(=O)O", "note": "[scNIP] (Biotin-RRRRRRRRRSDADLEELK-OH)", "values": [
      {"measurement": "NBS1 pSer343 foci per nucleus", "setting": "[1]; HeLa cells after treatment with 6-Gy IR", "result": 31, "unit": "foci per nucleus"},
      {"measurement": "average number of NBS1 pSer343 foci", "setting": "[1]; mock-irradiated HeLa cells", "result": 6},
      {"measurement": "cellular uptake of peptide", "setting": "[2]", "result": "significant cellular uptake of peptide"},
      {"measurement": "localization of internalized peptide", "setting": "[2]", "result": "cytoplasmic and nuclear compartments"},
      {"measurement": "IR-induced γ-H2AX focus formation", "setting": "[3]", "result": "did not affect IR-induced focus formation"},
      {"measurement": "ATM-NBS1 association (anti-NBS1 immunoprecipitation, anti-ATM blot)", "setting": "[4]", "result": "did not affect the NBS1-ATM interaction"},
      {"measurement": "average number of γ-H2AX foci/nucleus", "setting": "[5]", "result": 41, "unit": "foci/nucleus"},
      {"measurement": "D0 (mean lethal dose required for 37% survival)", "setting": "[6]", "result": 3.0},
      {"measurement": "effect of peptide on clonogenic survival", "setting": "[6]; 10 μM peptide", "result": "no significant difference between treatment groups"},
      {"measurement": "effect on radiosensitivity / IR-induced survival", "setting": "[6]; dose range 0 to 6 Gy", "result": "Neither R9 nor scNIP affects radiosensitivity"},
      {"measurement": "fluorescent intensity levels of peptide in cells", "setting": "[7]; 8 hours", "result": "much weaker"},
      {"measurement": "peptide staining in cells", "setting": "[7]; 12 hours", "result": "much weaker cytoplasmic staining with no observed nuclear staining"},
      {"measurement": "peptide staining in cells", "setting": "[7]; 24 hours", "result": "no detectable presence of the peptides"},
      {"measurement": "presence of peptides in cells", "setting": "[7]; within 2 hours of treatment", "result": "strong distribution"},
      {"measurement": "fluorescent intensity levels of peptide in cells", "setting": "[7]; within 4 hours", "result": "began to decrease"}
    ]},
    {"molecule": "O=c1cc(-c2cccc3c2Sc2ccccc2S3)oc(N2CCOCC2)c1", "note": "[KU55933]", "values": [
      {"measurement": "radiosensitivity", "setting": "[8]; Hela cells", "result": "significant increase in radiosensitivity"},
      {"measurement": "increase in sensitivity to etoposide", "setting": "[8]", "result": "≤ 35.5", "unit": "fold"}
    ]},
    {"molecule": "Biotin-RRRRRRRRRKEESLADDLF", "note": "[wild-type NBS1 inhibitory peptide (wtNIP)]", "values": [
      {"measurement": "SER (sensitizing enhancement ratio), DU-145", "setting": "[9]", "result": 1.46},
      {"measurement": "SER (sensitizing enhancement ratio), HeLa", "setting": "[9]", "result": 1.58},
      {"measurement": "SER (sensitizing enhancement ratio), M059J cells (defective DNA-PKcs)", "setting": "[9]", "result": 1.83},
      {"measurement": "sensitizer enhancement ratio at 2Gy, HeLa", "setting": "[9]", "result": 1.66},
      {"measurement": "sensitizer enhancement ratio at 4Gy, HeLa", "setting": "[9]", "result": 2.61},
      {"measurement": "sensitizer enhancement ratio at 6Gy, HeLa", "setting": "[9]", "result": 3.12}
    ]}
  ]
}
